Reference: patent US20110044952A1, “AMPLIFICATION OF CANCER-SPECIFIC ONCOLYTIC VIRAL INFECTION BY HISTONE DEACETYLASE INHIBITORS” (Ottawa Health Research Institute, priority 2007, published 2011)
“Also recorded” adds a separate entry of the source. Where two headings read alike, the source gives them in different places.

Key:
DBT glioma cells = conditions: mouse
PC3 cells = assay type: cell-based
VSV-d51-GFP [1] = assay type: cell-based
[2] = tested on: primary prostate cancer cells; assay type: cell-based
IFN-α = assay type: cell-based, human
IFN antiviral response = assay type: cell-based
[3] = tested on: IFN antiviral response pathway; assay type: cell-based
VVDD [4] = assay type: cell-based, vaccinia virus
VSVΔ51-Luc [5] = tested on: VSVΔ51-Luc; parameters: species or system CD1 nude mice; conditions: mouse, in vivo
VSVΔ51-Luc [6] = tested on: VSVΔ51-Luc; parameters: species or system BALB/c mice; conditions: mouse, in vivo, 20 mg/kg
VSV-d51-GFP [7] = tested on: VSV-d51-GFP
[8] = tested on: VSVΔ51 neutralizing antibody; conditions: mouse, in vivo
[9] = tested on: semliki forest virus (VA7); experiment: Semliki forest virus (VA7) spread and titers in glioma cell lines; assay type: cell-based
VVDD [10] = assay type: cell-based, vaccinia virus; conditions: TSA 0.156 μM 3 hours pre-treatment
B16-F10-lacZ = B16-F10-lacZ lung metastasis model; assay type: in vivo, C57BI6 mice; conditions: 0.05 mg TSA i.p. daily to day 4 + 10^7 pfu VVdd i.v. twice; lungs day 14; p<0.05 vs PBS, VVdd or TSA single treatments
VSV-d51-GFP [11] = assay type: cell-based; conditions: 24 hours

Molecule	VA7-mediated cytotoxicity (cell viability) (DBT glioma cells)	JC-1 green fluorescence (mitochondrial membrane potential) (PC3 cells)	activation of caspase 9 (immunoblot) (PC3 cells)	number of Annexin V-positive apoptotic cells (flow cytometry) (PC3 cells)	visible signs of cell death (phase-contrast microscopy) (PC3 cells)	VSV replication (GFP-positive cells, fluorescent microscopy) (VSV-d51-GFP [1])	VSV replication (GFP, flow cytometry) [2]	IFN production (IFN-α ELISA) (IFN-α)	induction of MxA mRNA (IFN antiviral response)	level of IFN-β mRNA (IFN antiviral response)	IRF3 phosphorylation [3]	activation of IRF7, ISG56 and RIG-I [3]	sensitivity of normal tissue to VSV infection (VSV-d51-GFP [7])	VSV-GFP replication (flow cytometry) (normal PBMCs)	further results
CCC(=O)CCCCC[C@@H]1NC(=O)[C@H]2CCCCN2C(=O)[C@H]([C@@H](C)CC)NC(=O)[C@H](Cc2cn(OC)c3ccccc23)NC1=O [Apicidin]	enhance VA7-mediated cytotoxicity	–	–	–	–	–	–	–	–	–	–	–	–	–	–
Nc1ccccc1NC(=O)c1ccc(CNC(=O)OCc2cccnc2)cc1 [MS-275]	–	increased JC-1 green fluorescence	significant activation	synergistically enhanced the number of Annexin V-positive apoptotic cells	not able to induce visible signs of cell death	allowed effective VSV replication	allowed effective VSV replication	significantly inhibited IFN production	decreased the induction of MxA mRNA	significantly lower; also recorded: undetectable levels	allowed detection of IRF3 phosphorylation and concomitant degradation	inhibited	specific towards cancer cells	did not increase VSV-GFP replication	replication of VVDD (VVDD [4]): able to synergize the replication of VVDD in 4T1, B16 and SW620 cells; VSV antigen in tumors (IHC of frozen sections) (VSVΔ51-Luc [5]): more abundant presence of VSV antigen; viral replication in tumor-bearing mice (IVIS) (VSVΔ51-Luc [5]; ip): more robust viral replication; VSV replication in SW620 tumors (VSVΔ51-Luc [5]; iv): enhancing effect; viral replication (IVIS) (VSVΔ51-Luc [6]): more robust and persistent viral replication; VSV in spleen and lungs (24 hours): sensitive/permissive to VSV; VSV in spleen and lungs (72 hours): started to clear out; loss of total weight (mouse, in vivo): approximately 15%; survival of mice (mouse, in vivo): all of the mice survived; VSV biodistribution in major organs (mouse, in vivo, iv): comparable results of viral spread and replication in major organs; VSV neutralizing antibody production [8]: Inhibit; VSV-G specific antibody production (miniblot) [8]: Inhibit
O=C(CCCCCCC(=O)Nc1ccccc1)NO [SAHA, suberoylanilide hydroxamic acid]	enhance VA7-mediated cytotoxicity	increased JC-1 green fluorescence	significant activation	synergistically enhanced the number of Annexin V-positive apoptotic cells	not able to induce visible signs of cell death	allowed effective VSV replication	allowed effective VSV replication	significantly inhibited IFN production	decreased the induction of MxA mRNA	significantly lower; also recorded: undetectable levels	allowed detection of IRF3 phosphorylation and concomitant degradation	inhibited	specific towards cancer cells	did not increase VSV-GFP replication	VA7 viral titers (pfu/ml) ([9]; SAHA 5 μM or Apicidin 1 μM 1 hour pre-treatment, MOI 0.01, DBT, CT2A, U251 cells, vs DMSO): enhanced the viral titers; Semliki forest virus spread (GFP photomicrographs) ([9]; SAHA 5 μM or Apicidin 1 μM, DBT cells, MOI 0.01, 30 hours): Enhance
CC(/C=C/C(=O)NO)=C\[C@@H](C)C(=O)c1ccc(N(C)C)cc1 [Trichostatin A]	–	–	–	–	–	–	–	–	–	–	–	–	–	–	VVdd spread (GFP photomicrographs) (VVDD [10]; MOI 0.1, 48 h): Increases; VVdd titers (pfu/ml) (VVDD [10]; MOI 0.1, 72 h): Increases; number of lung metastases (B16-F10-lacZ): Reduces the Number of Metastases
IFN-α	–	–	–	–	–	–	–	–	–	–	–	–	–	–	cell permissiveness to viral infection (GFP expression) (VSV-d51-GFP [11]): decrease cell permissiveness to viral infection
z-VAD-fmk	–	–	–	–	–	–	–	–	–	–	–	–	–	–	activation of apoptosis by VSV+MS-275 or VSV+SAHA (Annexin V) (PC3 cells): abrogated activation of apoptosis
